From patent US20090291953A1, “PHAR[…] OF REBOXETINE” (Pfizer Inc, priority 2002, published 2009)

Key:
Format in all cases: physicochemical
[1] = Hygroscopicity test by Dynamic Moisture Sorption Gravimetry (DVS 1000); settings: for Effects of moisture update: reversibility / retention of water uptake: DVS sorption/desorption, dependent on relative environmental humidity; for Water uptake %: 25° C.
Text: The water uptake of succinate and fumarate salts of S,S-reboxetine was investigated by submitting a sample of such salts to a hygroscopicity test by means of a DVS 1000 (SMS) according to the principle of Dynamic Moisture Sorption Gravimetry (DMSG). The apparatus is a “controlled atmosphere microbalance” where the weighed sample is exposed to programmed variations of the relative humidity (RH) at a constant and controlled temperature. The measured parameters (weight, time and RH), reported in Excel worksheets, allowed obtaining hygroscopicity curves over the tested RH range. Multiple sorption/desorption cycles between 0% and 90% RH were performed at 25° C. Progressive variations of RH were of 10%; they were operated by the software at the equilibration of the sample weight. This condition was defined at a constant rate of percent weight variation 0.005%/min (average of 5 minutes survey). The experimental results were reported in the DVS Isotherm Reports and Isotherm Plots.
The obtained results are summarized in the Table V, reporting the water uptake expressed as percent change in mass, and FIG. 4.

[2] = Thermogravimetric Analysis (TGA), volatile content
Experimental: The volatile content measured by means of Thermogravimetric Analysis (TGA) was relevant: in fact, a weight loss of about 2% was detected upon heating showing a related thermal feature. Whereas for SS-reboxetine fumarate and succinate salts a negligible […] weight loss was measured.

[3] = DSC analyses on samples recovered after DVS tests; settings: for DSC profile after equilibration at high humidity (DVS test method): maximum relative humidity of 90% at 25° C., equilibration up to 0.005%/min or no more than 360 minutes; for Modification of solid structure after DVS test (observed by DSC): tested sample after DVS sorption/desorption
Experimental: DSC analyses were carried out with a Perkin-Elmer DSC-7 apparatus. Aluminium DSC pans were loaded with about of 2 mg of sample. The temperature range of analysis was between 30° and 210° C. The samples were analyzed under nitrogen flow (to eliminate oxidative and pyrrolitic effects) at a heating rate of 10° C./min.
DSC analyses were executed as reported above also on the samples recovered after DVS tests, executed according to the DMSG principle. As shown below in FIG. 5, DSC profiles of SS-reboxetine succinate and fumarate salts were unchanged after equilibration at high humidity according to the DVS test method (maximum relative humidity of 90% at 25° C. and equilibration up to 0.005%/min or no more than 360 minutes).

[4] = listed as S,S-reboxetine mesylate

CCOc1ccccc1O[C@@H](c1ccccc1)[C@@H]1CNCCO1.O=C(O)/C=C/C(=O)O (single isomer, unassigned) [Fumarate salt, Reboxetine S,S Enantiomer Fumarate Salt]
Effects of moisture update: reversibility / retention of water uptake ([1]; Fumarate Salt): Reversible water
Effects of moisture update: reversibility / retention of water uptake ([1]; listed as fumarate salt, Fumarate Salt): reversible
Water uptake % ([1]; Relative Humidity 20%): 0.06%
Water uptake % ([1]; Relative Humidity 35%): 0.11%
Water uptake % ([1]; Relative Humidity 50%): 0.16%
Water uptake % ([1]; Relative Humidity 65%): 0.21%
Water uptake % ([1]; Relative Humidity 80%): 0.31%
Water uptake % ([1]; Relative Humidity 90%): 0.47%
Weight loss upon heating (TGA), in words [2]: negligible
DSC profile after equilibration at high humidity (DVS test method) [3]: unchanged

CCOc1ccccc1O[C@H](c1ccccc1)[C@H]1CNCCO1.CS(=O)(=O)O [Mesylate salt, S,S-reboxetine mesylate]
Effects of moisture update: reversibility / retention of water uptake [1]: Retention of water
Effects of moisture update: reversibility / retention of water uptake [1, 4]: only partially eliminated
Water uptake retained after re-equilibration ([1]; DVS, after re-equilibration): about 4%
Amount of water adsorbed (uptake) in hygroscopicity test ([1]; DVS, at 90% RH printed for mesylate salt): up to 9%
Desorption Cycle Water content % (percent change in mass) ([1]; Relative Humidity 0%): 4.3%
Sorption Cycle Water content % (percent change in mass) ([1]; Relative Humidity 0%): 0.0%
Desorption Cycle Water content % (percent change in mass) ([1]; Relative Humidity 20%): 4.5%
Sorption Cycle Water content % (percent change in mass) ([1]; Relative Humidity 20%): 0.5%
Desorption Cycle Water content % (percent change in mass) ([1]; Relative Humidity 35%): 4.6%
Sorption Cycle Water content % (percent change in mass) ([1]; Relative Humidity 35%): 0.6%
Desorption Cycle Water content % (percent change in mass) ([1]; Relative Humidity 50%): 4.6%
Sorption Cycle Water content % (percent change in mass) ([1]; Relative Humidity 50%): 0.7%
Desorption Cycle Water content % (percent change in mass) ([1]; Relative Humidity 65%): 4.6%
Sorption Cycle Water content % (percent change in mass) ([1]; Relative Humidity 65%): 0.9%
Desorption Cycle Water content % (percent change in mass) ([1]; Relative Humidity 80%): 4.7%
Sorption Cycle Water content % (percent change in mass) ([1]; Relative Humidity 80%): 4.5%
Desorption Cycle Water content % (percent change in mass) ([1]; Relative Humidity 90%): 8.7%
Sorption Cycle Water content % (percent change in mass) ([1]; Relative Humidity 90%): 8.7%
Effects of moisture update: change in crystalline form ([1]; after water uptake in DVS test): Irreversible change
Weight loss upon heating (volatile content, TGA) [2]: about 2%
DSC profile after equilibration at high humidity (DVS test method) [3]: complete destructuration
Modification of solid structure after DVS test (observed by DSC) [3, 4]: solid state modification was observed
Modification of solid structure after DVS test (observed by DSC) ([3]; listed as mesylate salt): loss of crystallinity

CCOc1ccccc1O[C@@H](c1ccccc1)[C@@H]1CNCCO1.O=C(O)CCC(=O)O (single isomer, unassigned) [Succinate salt, Reboxetine S,S Enantiomer Succinate Salt]
Effects of moisture update: reversibility / retention of water uptake ([1]; Succinate Salt): Reversible water
Effects of moisture update: reversibility / retention of water uptake ([1]; listed as succinate salt, Succinate Salt): reversible
Water uptake % ([1]; Relative Humidity 20%): 0.03%
Water uptake % ([1]; Relative Humidity 35%): 0.06%
Water uptake % ([1]; Relative Humidity 50%): 0.10%
Water uptake % ([1]; Relative Humidity 65%): 0.14%
Water uptake % ([1]; Relative Humidity 80%): 0.21%
Water uptake % ([1]; Relative Humidity 90%): 0.29%
Weight loss upon heating (TGA), in words [2]: negligible
DSC profile after equilibration at high humidity (DVS test method) [3]: unchanged
